Test results reported in patent publication US4017607A.
Values after ≈ are worked out from the molar mass of the structure shown. Read-outs that look alike come from different tables or passages of the source.

Assays:
[1] = test system: Sarcina lutea; assay: Minimum inhibitory concentration, serial dilution method; assay type: cell-based; conditions: Micrococcus luteus; Sarcina lutea; 24 hours, 37° C; read-out: Minimum Inhibitory Concentration
[2] = test system: Corynebacterium diphtheriae Type gravis; assay: as above; assay type: cell-based; conditions: Corynebacterium diphtheriae Type gravis; 24 hours, 37° C; read-out: Minimum Inhibitory Concentration
[3] = test system: Bacillus anthracis No. 119; assay: microbe, parasite or virus in culture; assay type: cell-based; conditions: NO.119, 24 h, read-out: Minimum Inhibitory Concentration
[4] = test system: Staphylococcus albus 1200A; assay: Minimum inhibitory concentration, serial dilution method; assay type: cell-based; conditions: read-out: Minimum Inhibitory Concentration
[5] = test system: Diplococcus pneumoniae Type I; assay: as above; assay type: cell-based; conditions: Streptococcus pneumoniae; Diplococcus pneumoniae Type I; 24 hours, 37° C; read-out: Minimum Inhibitory Concentration
[6] = test system: Staphylococcus aureus Smith; assay: as above; assay type: cell-based; conditions: read-out: Minimum Inhibitory Concentration
[7] = test system: Streptococcus hemolyticus Cook; assay: as above; assay type: cell-based; conditions: Streptococcus pyogenes; Streptococcus hemolyticus Cook; 24 hours, 37° C; read-out: Minimum Inhibitory Concentration
[8] = test system: Diplococcus pneumoniae Type III; assay: as above; assay type: cell-based; conditions: Streptococcus pneumoniae; Diplococcus pneumoniae Type III; 24 hours, 37° C; read-out: Minimum Inhibitory Concentration
[9] = test system: Bacillus subtilis PCI 219; assay: as above; assay type: cell-based; conditions: PCI219; Bacillus subtilis PCI 219; 24 hours, 37° C; read-out: Minimum Inhibitory Concentration
[10] = test system: Staphylococcus aureus 209P; assay: Minimum inhibitory concentration, serial dilution method, Brain Heart Infusion broth; assay type: cell-based; conditions: read-out: Minimum Inhibitory Concentration
[11] = test system: Bacillus subtilis ATCC 6633; assay: Minimum inhibitory concentration, serial dilution method; assay type: cell-based; conditions: read-out: Minimum Inhibitory Concentration
[12] = test system: Corynebacterium diphtheriae Type intermedius; assay: as above; assay type: cell-based; conditions: Corynebacterium diphtheriae Type intermedius; 24 hours, 37° C; read-out: Minimum Inhibitory Concentration
[13] = test system: Staphylococcus aureus 209P; conditions: 7th day, 10 mice per group
[14] = test system: Streptococcus hemolyticus D-90; assay: Minimum inhibitory concentration, serial dilution method; assay type: cell-based; conditions: Streptococcus pyogenes, D90; Streptococcus hemolyticus D-90; 24 hours, 37° C; read-out: Minimum Inhibitory Concentration
[15] = test system: Streptococcus faecalis ATCC 8043; assay: as above; assay type: cell-based; conditions: Enterococcus faecalis, ATCC8043; Streptococcus faecalis ATCC 8043; 24 hours, 37° C; read-out: Minimum Inhibitory Concentration
[16] = test system: Streptococcus pyogenes D-58; assay: as above; assay type: cell-based; conditions: D58; Streptococcus pyogenes D-58; 24 hours, 37° C; read-out: Minimum Inhibitory Concentration
[17] = test system: Staphylococcus aureus Terajima; assay: as above; assay type: cell-based; conditions: read-out: Minimum Inhibitory Concentration
[18] = Staphylococcus albus 1200A, 24 hours, 37° C
[19] = Staphylococcus aureus Smith, 24 hours, 37° C
[20] = Staphylococcus aureus 209P, 24 hours, 37° C
[21] = ATCC6633, Bacillus subtilis ATCC 6633, 24 hours, 37° C
[22] = Staphylococcus aureus Terajima, 24 hours, 37° C

Row | SMILES | MIC [1] [µg/mL] | MIC [2] [µg/mL] | MIC [3] [µg/mL] | MIC [5] [µg/mL] | MIC [7] [µg/mL] | MIC [8] [µg/mL] | MIC [9] [µg/mL] | MIC [12] [µg/mL] | Rate of surviving mice in each group of mice ([13]; 100 mg/kg oral) | Rate of surviving mice in each group of mice ([13]; 200 mg/kg oral) | MIC [14] [µg/mL] | MIC [15] [µg/mL] | MIC [16] [µg/mL] | MIC [4, 18] [µg/mL] | MIC [6, 19] [µg/mL] | MIC [10, 20] [µg/mL] | MIC [11, 21] [µg/mL] | MIC [17, 22] [µg/mL] | further results
1 | CCC(=O)OC1CC(=O)OC(C)CC=CC=CC(OC(C)=O)C(C)CC(CC=O)C(OC2OC(C)C(OC3CC(C)(OC(=O)CC)C(OC(=O)CC(C)C)C(C)O3)C(N(C)C)C2O)C1OC (stereo not drawn) [Compound No. 4] | 0.09 (≈ 0.0957 µM) | 0.19 (≈ 0.202 µM) | 1.56 (≈ 1.66 µM) | 0.39 (≈ 0.415 µM) | 0.39 (≈ 0.415 µM) | 0.19 (≈ 0.202 µM) | 0.78 (≈ 0.83 µM) | 0.19 (≈ 0.202 µM) | 0/10 | 3/10 | 0.19 (≈ 0.202 µM) | 0.78 (≈ 0.83 µM) | 0.19 (≈ 0.202 µM) |  |  |  |  |  | MIC ([4]; Staphylococcus, 1200A, 24 h): 1.56 µg/mL (≈ 1.66 µM); MIC ([6]; Staphylococcus aureus, 24 h): 1.56 µg/mL (≈ 1.66 µM); MIC ([10]; Staphylococcus aureus, 209P, 24 h): 1.56 µg/mL (≈ 1.66 µM); MIC ([11]; Bacillus subtilis, ATCC6633, 24 h): 1.56 µg/mL (≈ 1.66 µM); MIC ([17]; Staphylococcus aureus, 24 h): 1.56 µg/mL (≈ 1.66 µM)
2 | CCC(=O)OC1C=CC=CCC(C)OC(=O)CC(OC(=O)CC)C(OC)C(OC2OC(C)C(OC3CC(C)(OC(=O)CC)C(OC(C)=O)C(C)O3)C(N(C)C)C2O)C(CC=O)CC1C (stereo not drawn) [Compound No. 5] | 0.09 (≈ 0.0987 µM) | 0.19 (≈ 0.208 µM) | 0.78 (≈ 0.855 µM) | 0.09 (≈ 0.0987 µM) | 0.39 (≈ 0.428 µM) | 0.09 (≈ 0.0987 µM) | 1.56 (≈ 1.71 µM) | 0.19 (≈ 0.208 µM) | 4/10 | 8/10 | 0.78 (≈ 0.855 µM) | 0.78 (≈ 0.855 µM) | 0.19 (≈ 0.208 µM) | 1.56 (≈ 1.71 µM) | 0.78 (≈ 0.855 µM) | 1.56 (≈ 1.71 µM) | 1.56 (≈ 1.71 µM) | 3.12 (≈ 3.42 µM) | 
3 | CCC(=O)OC1CC(=O)OC(C)CC=CC=CC(OC(C)=O)C(C)CC(CC=O)C(OC2OC(C)C(OC3CC(C)(OC(=O)CC)C(OC(=O)CC)C(C)O3)C(N(C)C)C2O)C1OC (stereo not drawn) [Compound No. 6] | 0.09 (≈ 0.0987 µM) | 0.19 (≈ 0.208 µM) | 0.78 (≈ 0.855 µM) | 0.09 (≈ 0.0987 µM) | 0.19 (≈ 0.208 µM) | 0.09 (≈ 0.0987 µM) | 0.78 (≈ 0.855 µM) | 0.19 (≈ 0.208 µM) | 6/10 | 10/10 | 0.78 (≈ 0.855 µM) | 0.78 (≈ 0.855 µM) | 0.19 (≈ 0.208 µM) | 1.56 (≈ 1.71 µM) | 0.39 (≈ 0.428 µM) | 1.56 (≈ 1.71 µM) | 1.56 (≈ 1.71 µM) | 3.12 (≈ 3.42 µM) | 
4 | CCC(=O)OC1C=CC=CCC(C)OC(=O)CC(OC(=O)CC)C(OC)C(OC2OC(C)C(OC3CC(C)(OC(=O)CC)C(OC(=O)CC)C(C)O3)C(N(C)C)C2O)C(CC=O)CC1C (stereo not drawn) [Compound No. 7] | 0.09 (≈ 0.0972 µM) | 0.19 (≈ 0.205 µM) | 0.78 (≈ 0.842 µM) | 0.19 (≈ 0.205 µM) | 0.19 (≈ 0.205 µM) | 0.09 (≈ 0.0972 µM) | 0.78 (≈ 0.842 µM) | 0.19 (≈ 0.205 µM) | 5/10 | 10/10 | 1.56 (≈ 1.68 µM) | 0.78 (≈ 0.842 µM) | 0.09 (≈ 0.0972 µM) | 1.56 (≈ 1.68 µM) | 0.78 (≈ 0.842 µM) | 0.78 (≈ 0.842 µM) | 1.56 (≈ 1.68 µM) | 1.56 (≈ 1.68 µM) | 
